The nature of the series: Resistance to rinse by colorimetry (Indigotine dye revelation, chromameter). It counts as physicochemical. To be noted: 50 μl on ceramic tile, rinsed 2×10 ml deionized water, Indigotine dye 0.033%. How it is done:
Methodology: 50 μl of each solution in deionized water is deposited on a ceramic tile 2.5 cm×2.5 cm. After drying at room temperature, the treated tiles are rinsed with 2×10 ml deionized water. The revelation is then performed with 200 μl lndigotine dye ex. Wackherr (Cl 73015) at 0.033% in deionized water (3 minutes contact). After removing the excess of dye with 10 ml deionized water and drying of the surface, the coloration intensity is measured with a chromameter (Minolta CR200™). The higher the ΔE, the higher the difference of coloration versus the reference tile (no treatment, no contact with the dye). The coloration is the signal of the persistence of the PHMB on the surface after rinsing.

Turning to `CCCCCCCCCCCCOS(=O)(=O)[O-].[Na+]` [SLS 0.1%, sodium lauryl sulfate], the “ΔE (coloration versus reference tile)” value was 0.5.

The record behind these values is patent US6479044B1, “Antibacterial solution” (Colgate-Palmolive Company, priority 2001, dated 2002).
